The record followed here is patent US11318113B2, “Compounds for the treatment of diseases linked to mitochondrial reactive oxygen species (ROS) production” (OP2 DRUGS, priority 2015, dated 2022).

Structures are written as SMILES. ≈ marks a conversion by molar mass, not a printed value.

For series [1], the system named is outer nuclear layer (ONL) of the retina. Kind of series: Progressive light-induced retinal degeneration, retina histology. It counts as in vivo, rat. As to conditions: 6 mg/kg/day, three times a day, 7 days. The procedure:
Rats bred under cyclic low-intensity lighting were transferred to cyclic high-intensity lighting for one week and divided into 3 groups (non-treated animals, vehicle-treated animals and AOL-treated animals). Treated animals received injections of vehicle or AOL at a dose of 6 mg/kg/day, three times a day for the 7 days of the transfer (30 minutes before light-ON; at 01.00 pm; at 09.00 pm). After one week, animals were transferred in the dark (D0).
A control group (“untransferred”) was not transferred to cyclic high-intensity lighting but received the same treatment as described above: injections of vehicle or AOL three times a day for 7 days, followed by a transfer in the dark (D0).
Animals were then sacrificed for histological analysis.

Series [2] is described as follows: Solubility limit in Kolliphor. The class given is physicochemical.
Series [3] deals with isolated pancreatic islets from mice. Kind of series: Glucose-stimulated insulin secretion (GSIS) in isolated pancreatic islets. The class given is cell-based, mouse. As to conditions: AOL 10 and 20 μM, 1 hour. The procedure:
Pancreatic islets were isolated using the collagenase digestion method. Briefly, pancreas was inflated with Hanks solution containing 0.33 mg/mL of collagenase (Sigma-Aldrich), 5.6 mM glucose and 1% bovine serum albumin, pH 7.35, removed and kept at 37° C. for 6-9 minutes. After tissue digestion and exocrine removal by three consecutive washes, the islets were manually collected, under a binocular magnifier. Islets were left recovering from digestion by culturing for 20-24 hours in RPMI-1640 medium containing 11 mM glucose (Invitrogen, Calif., USA) and supplemented with 2 mM glutamine, 200 IU/mL penicillin, 200 μg/mL streptomycin and 8% fetal bovine serum stripped with charcoal-dextran (Invitrogen).
For each static GSIS experiment, islets from two mice were first incubated for 2 hours at 37° C. in 3 mL Krebs-bicarbonate buffer solution (in mM): […], 2 HEPES and 3 glucose, equilibrated with a mixture of 95% O2:5% CO2, pH 7.4. […] Insulin secretion in each well was calculated as ng of insulin per islet and per hour of incubation, and then expressed as percentage of insulin secretion in 11 mM glucose vehicle group, which was considered 100%.

The next series deals with NAD(P)H oxidase. Kind of series: NAD(P)H oxidase ROS/H2O2 production control test without mitochondria. It counts as biochemical. The settings on record: no mitochondria; NAD(P)H oxidase + NADH; results not shown.
Series [4] concerns isolated mitochondria from rat heart. The series can be described thus: Mitochondrial respiration / oxidative phosphorylation (oxygraph). The class given is biochemical. As to conditions: AOL 5 to 80 μM. As for the experimental part: Male Wistar rats (250-325 g; obtained from Janvier Labs, Le Genest-Saint-Isle, France) were killed by stunning and cervical dislocation, and the heart was quickly removed and washed in cold isolation medium containing 100 mM sucrose, 180 mM KCl, 50 mM Tris, 5 mM MgCl2, 10 mM EDTA, and 0.1% (w/v) deffated BSA (pH 7.2).
Isolation of heart mitochondria was performed in a cold chamber. Before homogenization, hearts (about 1.5 g) were minced with scissors and treated for 5 min in 5 mL of the same medium supplemented with protease (2 mg of bacterial proteinase type XXIV per mL of isolation buffer) with stirring. The tissue suspension was poured into a 50-ml glass Potter homogenizer, diluted with 20 mL of isolation buffer, then homogenized for 3 min using a motorized Teflon pestle. The homogenate was filtered through bolting cloth (Sefar Nitex) to remove debris, and centrifuged at 8,000 g for 10 minutes. The resulting pellet was rinsed with 5 mL of isolation buffer, resuspended in 25 mL of the same buffer, then subjected to low speed centrifugation (400 g) for 8 min. The resulting supernatant was centrifuged twice at 7,000 g for 15 min to yield a washed mitochondrial pellet that was gently resuspended in 150 μL of isolation buffer. Protein concentration was determined by the Bradford method (Sigma, kit # B6916) using BSA as standard. Mitochondria were kept on ice at a final concentration of 40-50 mg/mL for less than 5 h.
Oxygen consumption rates of heart mitochondria (0.1 mg/mL), incubated in the absence or presence of AOL at increasing doses (from 0 to 80 μM final concentration), were recorded polarographically under constant stirring at 25° C. using a high resolution oximeter (Oxygraph-2K, Oroboros Instruments, Austria). The respiration medium consisted in 140 mM sucrose, 100 mM KCl, 1 mM EGTA, 20 mM MgCl2, 10 mM KH2PO4, and 1 g/L (w/v) BSA essentially fatty acid free (pH 7.2).
This has been carried out by using the now classical oxygraph method. Mitochondria were first incubated with various AOL concentrations (5 to 80 μM) then respiratory substrate was added (substrate state, black curve), followed by a saturating ADP concentration to get the maximal oxidative phosphorylation rate (grey curve), and finally the addition of atractyloside (ATR) which inhibits the ADP/ATP translocator and gives the mitochondrial leak rate under non-phosphorylating conditions (FIG. 1A). The other panels of FIG. 1B-D presents the results obtained with different respiratory substrate combinations: glutamate+malate which feed electrons to complex I, succinate (+rotenone) for complex II and glutamate+malate+succinate to feed electrons to both complexes. […]

Take `COc1ccc(-c2cc(=S)ss2)cc1` [AOL, 5-(4-methoxyphenyl)-3H-1,2-dithiole-3-thione]: the results for the ONL thickness result in series [1] (transferred to cyclic high-intensity lighting) and in series [1] (untransferred control group) were “significant increase” and “no effect”, respectively. In series [2], this molecule showed a solubility limit of 2800 µM (≈ 673 µg/mL). Besides, the “GSIS increase as compared to the 11 mM glucose vehicle group” value in series [3] is 65-75%. Further, the “ROS/H2O2 production by NAD(P)H oxidase” value in the series on NAD(P)H oxidase is recorded as “does not inhibit”. In addition, the “mitochondrial oxidative phosphorylation and inner membrane integrity (leak rate, after ATR addition)” value in series [4] is “absence of effect”. Also, the “mitochondrial respiration under the different energetic states” value in series [4] (glutamate and malate) is reported as “no statistical differences”; in series [4] (glutamate, malate and succinate) it was “no statistical differences”; in series [4] (succinate (+rotenone)) it was “no statistical differences”.
